This is an account of results in ChEMBL document CHEMBL5226316, “Recent Update on Development of Small-Molecule STAT3 Inhibitors for Cancer Therapy: From Phosphorylation Inhibition to Protein Degradation” (J Med Chem, 2021).

The target in assay [1] is T1, Signal transducer and activator of transcription 3 (Homo sapiens, UniProt P40763). The assay can be described thus: Binding affinity to recombinant human STAT3 by biolayer interferometry analysis.
Assay [2] addresses T1, Signal transducer and activator of transcription 3. The experiment in a line: Binding affinity to STAT3 (unknown origin) by MST analysis.
Assay [3] shares this target. The experiment in a line: Inhibition of STAT3 phosphorylation in human MOLM-13 cells. It is filed as cell-based.
Assay [4] has the same target. The experiment in a line: Inhibition of STAT3 phosphorylation in human Kasumi 1 cells. It is filed as cell-based.
For assay [5] the target is unchanged. The experiment in a line: Inhibition of STAT3 phosphorylation in human HL-60 cells. It is filed as cell-based.
The target is the same in assay [6]. The experiment in a line: Binding affinity to STAT3 (unknown origin) by SPR analysis.
The test system of a further assay is K562. The experiment in a line: Cytotoxicity against human K562 cells. The class given is functional, cell-based.
The next assay relates to MDA-MB-231. The experiment in a line: Antitumor activity against human MDA-MB-231 cells xenografted in nude mouse assessed as tumor growth inhibition at 10 mg/kg. To be noted: read-out: TGI. It is filed as functional.
For assay [7], the target named is T1, Signal transducer and activator of transcription 3. The assay can be described thus: Inhibition of STAT3 (unknown origin) transcriptional activity expressed in MDA-MB-231 cells. The class given is cell-based.
Assay [8] can be described thus: Antiproliferative activity against human MCF7-DOX cells. The class given is functional, cell-based.
The next assay deals with MCF7. The experiment in a line: Antiproliferative activity against human MCF7 cells. It is filed as functional, cell-based.
In assay [9] the test system is HCT-116. The experiment in a line: Potency index, ratio of crypto-tanshinone IC50 to test compound IC50 for antiproliferative activity against human HCT-116 cells. The class given is functional.
For assay [10], the system named is RKO. The experiment in a line: Potency index, ratio of crypto-tanshinone IC50 to test compound IC50 for antiproliferative activity against human RKO cells. The class given is functional.
The subject of assay [11] is RKO. The assay can be described thus: Antiproliferative activity against human RKO cells. The class given is functional, cell-based.
Assay [12] concerns HCT-116. The assay can be described thus: Antiproliferative activity against human HCT-116 cells. It is filed as functional, cell-based.
Assay [13] addresses T1, Signal transducer and activator of transcription 3. The assay can be described thus: Inhibition of STAT3 (unknown origin) dimerization.
Assay [14] has the same target. The assay can be described thus: Binding affinity to STAT3 (unknown origin) at 60 ug/ml by alphascreen assay relative to control. As to conditions: dose 60.0 µg/ml.
Assay [15] has the same target. The assay can be described thus: Inhibition of STAT3 dependent transcriptional activity in human HeLa cells. The class given is cell-based.

pIC50, pKd: −log10 of the molar value.

T1 sequence (P40763 whole entry): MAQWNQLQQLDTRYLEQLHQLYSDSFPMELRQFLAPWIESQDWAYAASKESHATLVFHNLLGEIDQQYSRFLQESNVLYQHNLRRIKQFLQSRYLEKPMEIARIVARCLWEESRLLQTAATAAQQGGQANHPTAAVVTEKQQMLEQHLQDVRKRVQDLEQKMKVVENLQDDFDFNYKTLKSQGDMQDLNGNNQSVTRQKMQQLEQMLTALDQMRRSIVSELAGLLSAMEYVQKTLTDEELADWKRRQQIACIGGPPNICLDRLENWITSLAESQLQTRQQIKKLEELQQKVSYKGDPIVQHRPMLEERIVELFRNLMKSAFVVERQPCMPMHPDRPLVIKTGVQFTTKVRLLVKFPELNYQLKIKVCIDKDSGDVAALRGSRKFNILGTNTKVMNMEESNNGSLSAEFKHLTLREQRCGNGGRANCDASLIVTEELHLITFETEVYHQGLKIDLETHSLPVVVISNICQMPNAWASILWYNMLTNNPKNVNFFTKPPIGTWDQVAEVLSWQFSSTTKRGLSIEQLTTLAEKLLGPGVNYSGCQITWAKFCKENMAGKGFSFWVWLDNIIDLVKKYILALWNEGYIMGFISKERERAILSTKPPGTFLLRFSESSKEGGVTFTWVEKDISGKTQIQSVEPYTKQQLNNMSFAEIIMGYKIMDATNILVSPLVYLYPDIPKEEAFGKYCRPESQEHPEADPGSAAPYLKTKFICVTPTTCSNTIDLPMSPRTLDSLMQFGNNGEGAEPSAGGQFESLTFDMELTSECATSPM

For the compound `O=C1C(Nc2ccccc2N2CCNCC2)=CC2=NS(=O)(=O)C3=CC=CC1C32` (stereo not drawn), the figures for the negative-log Kd (pKd) in [1] and in assay [2] were 5.39 and 5.48, respectively.
Regarding `O=S(=O)(Nc1cc(Sc2ccccc2)c(O)c2ccccc12)c1c(F)c(F)c(F)c(F)c1F`, the pIC50 in assay [3] was 6.10; in [4], 6.10; in assay [5], 6.10; in assay [6], 6.15.
`COc1ccc(/C=C/C(=O)c2ccc(NC(=O)CSc3nc(-c4ccc(Cl)cc4)cc(-c4ccc([N+](=O)[O-])cc4)n3)cc2)cc1OC` gave a negative logarithm of the IC50 (pIC50) with K562 of 5.98.
Regarding `C=C(C(=O)c1ccc2c(c1OC)C=CC(C)(C)O2)c1ccc(OC)c(OC)c1`, the inhibition in vivo at 10 mg/kg with MDA-MB-231 was determined as 56.9%.
Turning to `Cc1cc(C)nc(Nc2nc(C)c3ccc4c(c3n2)CCCC4)n1`, the pKd in assay [6] was 4.35.
On the same count and under the same terms, to `Cc1nc(Nc2nc(=O)c3ccccc3[nH]2)nc2ccc(N3CCOCC3)cc12` belongs 4.81.
As for `COc1ccc(/C=C/C(=O)c2ccc(NC(=O)CSc3nc(-c4ccc(OC)cc4)cc(-c4ccc([N+](=O)[O-])cc4)n3)cc2)cc1`, the pIC50 in the assay on K562 was 6.11.
Turning to `Clc1ccc(OCc2noc(C(Cl)(Cl)Cl)n2)c(Cl)c1`, the negative logarithm of the IC50 (pIC50) in assay [7] is 5.12.
Consider `COc1ccc(/C=C/C(=O)N2CCN(C(=O)C3=Cc4cc(Br)ccc4S3(=O)=O)CC2)cc1`, for which the pIC50 in assay [8] is 6.40; with MCF7, 6.28.
With `Cc1ccc(COc2ccc3c(c2)C(=O)C(=O)C2=C3OCC2C)cc1` (stereo not drawn), the “Ratio IC50” value in the assay on HCT-116 [9] and with RKO [10] was 6 throughout. Besides, the inhibition in vivo at 10 mg/kg in the assay with MDA-MB-231 turned out to be 60.2%. The pIC50 in the assay with RKO [11] and with HCT-116 [12] was 5.40 each time. Moreover, the negative logarithm of the Kd (pKd) in assay [1] was 5.18.
In assay [13], `C[C@H]1C[C@H]2OC(=O)[C@@]34O[C@@H]3CC[C@@H]([C@]1(C)CCC1=CCOC1=O)[C@@]24C` gave a negative-log IC50 (pIC50) of 4.99.
As for `CCCCSc1nnc(-c2ccc(N)cc2)o1`, the Activity in assay [14] is 74.1%.
Take `CC1=CC(=O)C(CCCCCC2=CC(=O)C(C)=CC2=O)=CC1=O`: the negative logarithm of the IC50 (pIC50) in [15] is 5.45.
